In US6861434B2, “Antipsychotic aminomethyl derivatives of 1,3,7,8-tetrahydro-6,9-dioxa-1,3-diaza-cyclopenta[a]-naphthalen-2-one” (Wyeth, priority 2001, dated 2005) one finds IC50 and melting point data, which are given here for 15 compounds.

Molecules are shown by their SMILES. Counter-ions that a name gives are not always drawn. Some results are limits rather than exact numbers.

Usually IC50 stands for the point on the concentration scale where inhibition reaches its midpoint. A lower IC50 goes with higher potency. Broadly, the melting point is the temperature, or range, at which the solid turns liquid.

T1 sequence (P61169 whole entry): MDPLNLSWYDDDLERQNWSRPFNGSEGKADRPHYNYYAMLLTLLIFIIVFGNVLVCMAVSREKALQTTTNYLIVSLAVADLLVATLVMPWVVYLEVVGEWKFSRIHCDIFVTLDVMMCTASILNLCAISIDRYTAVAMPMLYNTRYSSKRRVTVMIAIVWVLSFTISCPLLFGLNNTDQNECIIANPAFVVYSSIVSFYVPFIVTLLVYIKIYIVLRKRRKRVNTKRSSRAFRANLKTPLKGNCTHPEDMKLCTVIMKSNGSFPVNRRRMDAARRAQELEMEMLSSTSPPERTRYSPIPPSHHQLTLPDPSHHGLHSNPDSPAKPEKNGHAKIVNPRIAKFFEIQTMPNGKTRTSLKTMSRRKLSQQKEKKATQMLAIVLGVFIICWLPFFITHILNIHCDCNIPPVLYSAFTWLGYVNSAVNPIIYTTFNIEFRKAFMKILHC

One data set has as its target T1, dopamine D2 receptor (Rattus norvegicus, UniProt P61169).
T1 construct: from tissue; host or cells: rat striatal brain tissue homogenate
Nature of the data set: Dopamine D2 receptor affinity, 3H-quinpirole binding in homogenized rat striatal brain tissue. On the procedure:
Affinity for the dopamine D2 receptor was established by a modification of the standard experimental test procedure of Seemen and Schaus, European Journal of Pharmacology 203: 105-109, 1991, wherein homogenized rat striatal brain tissue is incubated with ^3H-quinpirole and various concentrations of test compound, filtered and washed and counted in a Betaplate scintillation counter.
`O=c1[nH]c2ccc3c(c2[nH]1)OC(CNCc1ccccc1)CO3` (stereo not drawn) [Example 1, 8-(Benzylamino-methyl)-1,3,7,8-tetrahydro-6,9-dioxa-1,3-diaza-cyclopenta[a]naphthalen-2-one] returned an IC50 of 0.39 nM. In turn, `O=c1[nH]c2ccc3c(c2[nH]1)OC(CNCCCCc1ccccc1)CO3` (stereo not drawn) [Example 2, 8-[(4-Phenyl-butylamino)-methyl]-1,3,7,8-tetrahydro-6,9-dioxa-1,3-diaza-cyclopenta[a]naphthalen-2-one] registered a 50% inhibitory concentration (IC50) of 0.18 nM. Same read-out and setting: the result for `O=c1[nH]c2ccc3c(c2[nH]1)OC(CN1CC=C(c2ccccc2)CC1)CO3` (stereo not drawn) [Example 3, 8-(4-Phenyl-5,6-dihydro-2H-pyridin-1-ylmethyl)-1,3,7,8-tetrahydro-6,9-dioxa-1,3-diaza-cyclopenta[a]naphthalen-2-one] reads 1.3 nM; that for `O=c1[nH]c2ccc3c(c2[nH]1)OC(CNCC12CC4CC(CC(C4)C1)C2)CO3` (stereo not drawn) [Example 4, 8-{[(Adamantan-1-ylmethyl)-amino]-methyl}-1,3,7,8-tetrahydro-6,9-dioxa-1,3-diaza-cyclopenta[a]naphthalen-2-one], 0.84 nM; that for `O=c1[nH]c2ccc3c(c2[nH]1)O[C@@H](CN1CCc2ccccc2C1)CO3` [Example 5], 6.78 nM. Still for that read-out and setting: the same measure for `O=C(c1ccc(F)cc1)C1CCN(C[C@H]2COc3ccc4[nH]c(=O)[nH]c4c3O2)CC1` [Example 6, 8-[4-(4-Fluoro-benzoyl)-piperidin-1-ylmethyl]-1,3,7,8-tetrahydro-6,9-dioxa-1,3-diaza-cyclopenta[a]naphthalen-2-one]: 1.43 nM; for `CC(=O)Nc1cccc(OCCCNCC2COc3ccc4[nH]c(=O)[nH]c4c3O2)c1` (stereo not drawn) [Example 7, N-(3-{3-[(2-Oxo-2,3,7,8-tetrahydro-1H-6,9-dioxa-1,3-diaza-cyclopenta[a]naphthalen-8-ylmethyl)-amino]propoxy}-phenyl)-acetamide]: 0.55 nM. The same measure, in the same setting: the result for `O=c1[nH]c2ccc3c(c2[nH]1)OC(CNCCCc1c[nH]c2ccccc12)CO3` (stereo not drawn) [Example 8, 8-{[3-(1H-indol-3-yl)-propylamino]-methyl}-1,3,7,8-tetrahydro-6,9-dioxa-1,3-diaza-cyclopenta[a]naphthalen-2-one] reads 0.02 nM.

Tested on in the next data set: not given
Assay: not given
Turning to `O=c1[nH]c2ccc3c(c2[nH]1)OC(CNCc1ccccc1)CO3` (stereo not drawn) (as salt: fumarate) (hydrate or solvate) [Example 1, 8-(Benzylamino-methyl)-1,3,7,8-tetrahydro-6,9-dioxa-1,3-diaza-cyclopenta[a]naphthalen-2-one], the melting point lay within 149 to 151 °C. Consider `O=c1[nH]c2ccc3c(c2[nH]1)OC(CNCCCCc1ccccc1)CO3` (stereo not drawn) (as salt: fumarate) (hydrate or solvate) [Example 2, 8-[(4-Phenyl-butylamino)-methyl]-1,3,7,8-tetrahydro-6,9-dioxa-1,3-diaza-cyclopenta[a]naphthalen-2-one], for which the melting point is 224 to 226 °C.

In the case of `O=c1[nH]c2ccc3c(c2[nH]1)OC(CN1CC=C(c2ccccc2)CC1)CO3` (stereo not drawn) (as salt: fumarate) (hydrate or solvate) [Example 3, 8-(4-Phenyl-5,6-dihydro-2H-pyridin-1-ylmethyl)-1,3,7,8-tetrahydro-6,9-dioxa-1,3-diaza-cyclopenta[a]naphthalen-2-one], the melting point was in the range of 205 to 209 °C. The same measure, in the same setting: the same measure for `CC(=O)Nc1cccc(OCCCNCC2COc3ccc4[nH]c(=O)[nH]c4c3O2)c1` (stereo not drawn) (as salt: fumarate) (hydrate or solvate) [Example 7, N-(3-{3-[(2-Oxo-2,3,7,8-tetrahydro-1H-6,9-dioxa-1,3-diaza-cyclopenta[a]naphthalen-8-ylmethyl)-amino]propoxy}-phenyl)-acetamide]: 125 °C (dec.); for `O=c1[nH]c2ccc3c(c2[nH]1)OC(CNCC12CC4CC(CC(C4)C1)C2)CO3` (stereo not drawn) (as salt: hydrochloride) (hydrate or solvate) [Example 4, 8-{[(Adamantan-1-ylmethyl)-amino]-methyl}-1,3,7,8-tetrahydro-6,9-dioxa-1,3-diaza-cyclopenta[a]naphthalen-2-one]: over 250 °C; for `O=c1[nH]c2ccc3c(c2[nH]1)OC(CN1CCC2C=CC=CC2C1)CO3` (stereo not drawn) (as salt: hydrochloride) [Example 5]: over 275 °C. The same measure, in the same setting: the same measure for `O=c1[nH]c2ccc3c(c2[nH]1)OC(CNCCCc1c[nH]c2ccccc12)CO3` (stereo not drawn) (as salt: hydrochloride) [Example 8, 8-{[3-(1H-indol-3-yl)-propylamino]-methyl}-1,3,7,8-tetrahydro-6,9-dioxa-1,3-diaza-cyclopenta[a]naphthalen-2-one]: 200 to 207 °C (dec.).
